Results from patent publication US20060194815A1, “Methods and compositions for modulating serum cortisol levels” (priority 2003, published 2006).

Tested on: Y1 mouse adrenal tumor cells
Assay: dbcAMP-induced 20á-hydroxyprogesterone synthesis in Y1 cells (RIA)
Assay type: cell-based
Protocol: Culture media were then changed and cells were stimulated with 1 mM dbcAMP and the treatment for 24 to 48 hours. […] The synthesis of 20-OH progesterone and progesterone in Y1 and MA-10 cell media respectively were measured by RIA (Brown et al., 1992). H295R human adrenal tumor cells were seeded in 48-well plates at 10^5 cells/well and incubated for 24 hours. […] At the end of the incubation time period, cells were treated with 1 mM dbcAMP for 48 hours. Cortisol levels in the media were determined by radioimmunoassay as previously described (Amri et al., 1996).

CC1CN(C(=O)C(Cc2c[nH]c3ccccc23)NC(=O)c2ccc([N+](=O)[O-])cc2)CCN1C(=O)C1CC1 (stereo not drawn) [SP010, N-[2-(4-cyclopropanecarbonyl-3-methyl-piperazin-1-yl)-1-(1H-indol-3-yl-methyl)-2-oxo-ethyl]-4-nitro-benzamide]
efficacy on Y1 adrenocortical cells across concentrations (1, 10 and 100 iM): maintained the same efficacy | dbcAMP-induced 20á-hydroxyprogesterone production (Y1 cells, 1 mM dbcAMP, increasing concentrations): decreased in a dose-dependent manner | potency compared with procaine on cAMP-corticosteroid formation (even at a concentration as low as 1 μM): as potent as procaine
